What was measured:
Assay type in all cases: in vivo
[1] = tested on: barnyard grass (Echinochloa crus-galli Beauv.), Ec; test: Test Example 4: herbicidal effect on upland weeds after emergence; details: dosage 5 kg/ha; sprayed after emergence; judged 14 days after treatment
How it was run: (§1)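 Post-emergence foliar spray, compound at prescribed concentration, applied at defined leaf stages; weeds plus soybean/wheat grown in soil vats. Read-out: weed-killing rate and crop injury, 14 d post-treatment.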

[2] = tested on: forxtail grass (Alopecurus aequalis var. amurensis Ohwi), Am; test: as above; details: dosage 5 kg/ha; sprayed after emergence; judged 14 days after treatment
How it was run: as §1

[3] = tested on: cocklebur (Xanthium strumarium L.), Xs; test: as above; details: dosage 5 kg/ha; sprayed after emergence; judged 14 days after treatment
How it was run: as §1

[4] = tested on: velvetleaf (Abutilon theophtasti L.), At; test: as above; details: dosage 5 kg/ha; sprayed after emergence; judged 14 days after treatment
How it was run: as §1

[5] = tested on: bird's eye speedwell (Veronica persica Poir.), Vp; test: as above; details: dosage 5 kg/ha; sprayed after emergence; judged 14 days after treatment
How it was run: as §1

[6] = tested on: cleavers (Galium aparine L.), Ga; test: as above; details: dosage 5 kg/ha; sprayed after emergence; judged 14 days after treatment
How it was run: as §1

[7] = tested on: bulrush (Scirpus juncoides Roxb.); test: Test Example 2: herbicidal effect on paddy field weeds after emergence; details: Dosage 5 kg/ha; one-leaved stage; 21 days after treatment
How it was run: (§2)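 Weeds were sown in 1/10000 are pots of soil flooded to paddy conditions and grown to the one-leaf stage, then the soil was treated with a solution of compound at a predetermined dosage.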

[8] = tested on: barnyard grass (Echinochloa crus-galli Beauv.); test: as above; details: Dosage 5 kg/ha; one-leaved stage; 21 days after treatment
How it was run: as §2

[9] = tested on: monochoria (Monochoria vaginalis Presl); test: as above; details: Dosage 5 kg/ha; one-leaved stage; 21 days after treatment
How it was run: as §2

wheat (Wh) = test: Test Example 3: phytotoxicity to upland crop plants, treatment before emergence; details: dosage 5 kg/ha
How it was run: (§3)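 Pre-emergence spray, test compound at prescribed conc. in liquid formulation; crop injury (soybean, wheat) read at day 14, scored by criterion.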

soybean plant (So) = test: as above; details: dosage 5 kg/ha
How it was run: as §3

soybean plant = test: Test Example 4: phytotoxicity to upland crop plants, treatment after emergence; details: dosage 5 kg/ha, sprayed after emergence, judged 14 days after treatment
How it was run: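 Upland weeds and crop plants (soybean, wheat) are grown from seed in soil until they reach given leaf stages, then treated by spraying with the compound-containing agent; effects are judged two weeks later.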

wheat = test: as above; details: dosage 5 kg/ha, sprayed after emergence, judged 14 days after treatment
How it was run: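 Seeds sown in soil and covered. Plants raised to specified leaf stages. Agent with test compound at a prescribed concentration sprayed. Herbicidal effect and crop damage scored after 14 days as weed-killing rate.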

[10] = tested on: bulrush (Scirpus juncoides Roxb.); test: Test Example 1: herbicidal effect on paddy field weeds before emergence; details: Dosage 5 kg/ha
How it was run: (§4)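 Grading reflects percent control relative to untreated plots, evaluated three weeks post-application. Treatment was a soil application of compound solution, predetermined dose, made to paddy-state pots before weed seeds germinated.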

[11] = tested on: barnyard grass (Echinochloa crus-galli Beauv.); test: as above; details: Dosage 5 kg/ha
How it was run: as §4

[12] = tested on: barnyard grass (Echinochloa crus-galli Beauv.), Ec; test: Test Example 3: herbicidal effect on upland weeds before emergence; details: dosage 5 kg/ha
How it was run: (§5)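 Test compound, formulated as a liquid at a fixed concentration, is sprayed before weed emergence. Two weeks later, kill rate is derived and herbicidal activity is rated.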

[13] = tested on: forxtail grass (Alopecurus aequalis var. amurensis Ohwi), Am; test: as above; details: foxtail grass, dosage 5 kg/ha
How it was run: as §5

[14] = tested on: cocklebur (Xanthium strumarium L.), Xs; test: as above; details: dosage 5 kg/ha
How it was run: as §5

[15] = tested on: velvetleaf (Abutilon theophtasti L.), At; test: as above; details: dosage 5 kg/ha
How it was run: as §5

[16] = tested on: bird's eye speedwell (Veronica persica Poir.), Vp; test: as above; details: dosage 5 kg/ha
How it was run: as §5

[17] = tested on: cleavers (Galium aparine L.), Ga; test: as above; details: dosage 5 kg/ha
How it was run: as §5

| SMILES | Herbicidal effect Ec [1] | Herbicidal effect Am [2] | Herbicidal effect Xs [3] | Herbicidal effect At [4] | Herbicidal effect Vp [5] | Herbicidal effect Ga [6] | Post-emergence treatment Bulrush (herbicidal effect) [7] | Post-emergence treatment Barnyard grass (herbicidal effect) [8] | Post-emergence treatment Monochoria (herbicidal effect) [9] | Phytotoxicity Wh (wheat (Wh)) | Phytotoxicity So (soybean plant (So)) | Phytotoxicity So (soybean plant) | Phytotoxicity Wh (wheat) | Pre-emergence treatment Bulrush (herbicidal effect) [10] | Pre-emergence treatment Barnyard grass (herbicidal effect) [11] | Herbicidal effect Ec [12] | Herbicidal effect Am [13] | Herbicidal effect Xs [14] | Herbicidal effect At [15] | Herbicidal effect Vp [16] | other results |
| --- | --- | --- | --- | --- | --- | --- | --- | --- | --- | --- | --- | --- | --- | --- | --- | --- | --- | --- | --- | --- | --- |
| CCc1ccc(Cl)c(CC)c1NC(=O)c1nc2ccccc2nc1C(=O)NCC(C)(C)C [compound 1314] | 5 (Weed-killing rate is 100%.) | 5 (Weed-killing rate is 100%.) | 4 (Weed-killing rate is 90-99%.) | 5 (Weed-killing rate is 100%.) | 5 (Weed-killing rate is 100%.) | 4 (Weed-killing rate is 90-99%.) | 4 (Weed-killing rate is 90-99%.) | 4 (Weed-killing rate is 90-99%.) | 5 (Weed-killing rate is 100%.) | 4 (Crop-killing rate is 90-99%.) | 3 (Crop-killing rate is 70-89%.) | 4 (Crop-killing rate is 90-99%.) | 4 (Crop-killing rate is 90-99%.) | 5 (Weed-killing rate is 100%.) | 5 (Weed-killing rate is 100%.) | 5 (Weed-killing rate is 100%.) | 5 (Weed-killing rate is 100%.) | 4 (Weed-killing rate is 90-99%.) | 5 (Weed-killing rate is 100%.) | 5 (Weed-killing rate is 100%.) | Herbicidal effect Ga [17]: 4 (Weed-killing rate is 90-99%.) |
| CCc1ccc(Cl)c(CC)c1NC(=O)c1nc2ccccc2nc1C(=O)NC1CCCC1 [compound 1315] | 5 (Weed-killing rate is 100%.) | 5 (Weed-killing rate is 100%.) | 5 (Weed-killing rate is 100%.) | 5 (Weed-killing rate is 100%.) | 5 (Weed-killing rate is 100%.) | 5 (Weed-killing rate is 100%.) | 5 (Weed-killing rate is 100%.) | 5 (Weed-killing rate is 100%.) | 5 (Weed-killing rate is 100%.) | 5 (Crop-killing rate is 100%.) | 5 (Crop-killing rate is 100%.) | 5 (Crop-killing rate is 100%.) | 5 (Crop-killing rate is 100%.) | 5 (Weed-killing rate is 100%.) | 5 (Weed-killing rate is 100%.) | 5 (Weed-killing rate is 100%.) | 5 (Weed-killing rate is 100%.) | 5 (Weed-killing rate is 100%.) | 5 (Weed-killing rate is 100%.) | 5 (Weed-killing rate is 100%.) | Herbicidal effect Ga [17]: 5 (Weed-killing rate is 100%.) |
| CCCNC(=O)c1nc2ccccc2nc1C(=O)Nc1cccc(Cl)c1C [compound 1318] | 5 (Weed-killing rate is 100%.) | 5 (Weed-killing rate is 100%.) | 4 (Weed-killing rate is 90-99%.) | 5 (Weed-killing rate is 100%.) | 5 (Weed-killing rate is 100%.) | 5 (Weed-killing rate is 100%.) | 4 (Weed-killing rate is 90-99%.) | 4 (Weed-killing rate is 90-99%.) | 5 (Weed-killing rate is 100%.) | 5 (Crop-killing rate is 100%.) | 3 (Crop-killing rate is 70-89%.) | 3 (Crop-killing rate is 70-89%.) | 4 (Crop-killing rate is 90-99%.) | 4 (Weed-killing rate is 90-99%.) | 5 (Weed-killing rate is 100%.) | 5 (Weed-killing rate is 100%.) | 5 (Weed-killing rate is 100%.) | 4 (Weed-killing rate is 90-99%.) | 5 (Weed-killing rate is 100%.) | 5 (Weed-killing rate is 100%.) | Herbicidal effect Ga [17]: 4 (Weed-killing rate is 90-99%.) |
| Cc1c(Cl)cccc1NC(=O)c1nc2ccccc2nc1C(=O)NC1CCCC1 [compound 1327] | 5 (Weed-killing rate is 100%.) | 5 (Weed-killing rate is 100%.) | 4 (Weed-killing rate is 90-99%.) | 5 (Weed-killing rate is 100%.) | 5 (Weed-killing rate is 100%.) | 5 (Weed-killing rate is 100%.) | 4 (Weed-killing rate is 90-99%.) | 4 (Weed-killing rate is 90-99%.) | 5 (Weed-killing rate is 100%.) | 5 (Crop-killing rate is 100%.) | 3 (Crop-killing rate is 70-89%.) | 3 (Crop-killing rate is 70-89%.) | 4 (Crop-killing rate is 90-99%.) | 4 (Weed-killing rate is 90-99%.) | 5 (Weed-killing rate is 100%.) | 5 (Weed-killing rate is 100%.) | 5 (Weed-killing rate is 100%.) | 4 (Weed-killing rate is 90-99%.) | 5 (Weed-killing rate is 100%.) | 5 (Weed-killing rate is 100%.) | Herbicidal effect Ga [17]: 4 (Weed-killing rate is 90-99%.) |
